Reference: US11186581B2, “2-(1,3-dimethyl-2,6-dioxo-1,2,3,6-tetrahydro-7H-purin-7-yl)-N-(6-(2-hydroxyphenyl)pyridazin-3-yl)acetamide as a Wnt pathway modulator” (Agency for Science, Technology and Research, priority 2017, dated 2021)

Tested on: HEK293-STF3A cells
Assay: STF3A assay (Wnt reporter luciferase)
Assay type: cell-based
Settings: Homo sapiens, 24 h, 1 day of treatment, read-out: IC50 activities on STF3A cells
Procedure: HEK293-STF cell line was modified from Human embryonic kidney cell line HEK293 transfected with the STF reporter. HEK293-STF3 A cell line was further modified from HEK293-STF cell line to express Wnt3A. This cell line was used to identify compounds that regulate either early or late signalling components of the Wnt pathway. L-Wnt3 A (ATCC, #CRL-2647) cell line was used for providing Wnt3 A conditioned media. The three cell lines were grown in DMEM (Dulbecco's Modified Eagle Medium) with 10% FBS (fetal bovine serum) incubated in 37° C. with 5% CO2.
2×10^4 HEK293-STF3A cells in 75 μl culture media were seeded in each well of white 96 well plates (Greiner #655098) and incubated overnight at 37° C. 25 μl serially diluted compound was added to the cells to give final concentration of 50 μM to 1.5 nM. After 1 day of treatment, 100 μl of Steady-Glo® Luciferase Assay reagent (#E2520, Promega) was added to each well and incubated for 10 minutes at room temperature. Luminescence was measured using Tecan Safire2® plate reader.

COc1ccccc1-c1ccc(NC(=O)Cn2cnc3c2c(=O)n(C)c(=O)n3C)nn1 [Compound 2, reference compound]
IC50: > 10 µM
